Results reported in US12440479B2, “Prevention or treatment of chronic organ injury” (GEORG-AUGUST-UNIVERSITAET GOETTINGEN, STIFTUNG …, priority 2018, dated 2025).

Columns and labels:
[1] = FK506 blood concentration measurements (ELISA, whole blood); type: in vivo, mice
Description: FK506 concentration in whole blood samples of mice was measured using colorimetric FK506 Elisa Kit (Abnova, Taipei, […]) according to the manufacturer's protocol. Briefly, 25 μL of whole blood samples and standard solutions containing 0, 2, 10 and 50 ng/mL FK506 were analyzed by OD measurements at 450 nanometer (nm) wavelength.

[2] = tested on: ARNT dimers; experiment: Native gel analysis of total kidney lysates after Arnt pulldown (UUO mice); type: in vivo; conditions: UUO mice treated with FK506; without interaction with HIF1α, HIF2α or AHR
From the text: Tissue and cells were homogenized in NP40 lysis buffer (Life technologies, Carlsbad, USA) supplemented with protease inhibitor cocktail (Roche, Basel, Switzerland). After sonication, protein samples were resolved by a 4-12% Bis-Tris polyacrylamide gel electrophoresis system (Novex, Carlsbad, USA) and transferred onto a nitrocellulose membrane (GE Healthcare, Freiburg, Deutschland), followed by a blocking step with 5% dry milk or 5% bovine serum albumin (BSA) in TBS-T (TBS pH 7.2, 0.1% Tween-20) to prevent unspecific bindings. After incubation with respective primary antibodies against ALK3 (ABD51, Merck Millipore, Billerica, USA) and ALK6 (ABD50, Merck Millipore, Billerica, USA), pSmad1/5/8 (13820, Cell Signaling, Danvers, USA), Arnt (3718, Cell Signaling, Danvers, USA), Fkbp12 (ab2918, Abcam Biochemicals, Cambridge, UK), NFATc1 (sc-7294, Santa Cruz Biotechnology, Dallas, USA), NFATc2 (sc-7295, Santa Cruz Biotechnology, Dallas, USA), β-actin (A5316, Sigma, St. Louis, USA) and Gapdh (5G4, HyTest, Turku, Finland), secondary HRP-conjugated antibodies were used (Dako, Glostrup, Denmark). Luminescence was detected by using chemiluminescent substrate (Cell Signaling, Danvers, USA) on a ChemiDoc XRS system (Bio-Rad, Hercules, USA). Native protein samples were prepared with Native PAGE Sample Prep kit (Novex, Carlsbad, USA) according to the manufacturer's instruction. […]

[3] = tested on: ARNT, ALK3, pSmad1/5/8; experiment: Kidney allograft biopsies of transplant recipients (immunolabelling, qRT-PCR); type: in vivo, human; conditions: FK506-based immunosuppressive regimen as compared to CsA
Description: The use of parts of human specimens for research purposes as approved by the Ethics Committee of the University Medicine Göttingen, clinical data are presented in Table 6.
Paraffin-embedded specimens were deparaffinized in xylene and rehydrated in ethanol containing distilled water. Tissue sections were stained using polyclonal antibodies against ALK3 (sc-20736, Santa Cruz Biotechnology, Dallas, USA) and ARNT (3718S, Cell Signaling, Danvers, USA), peroxidase labeling was performed using Vectastain Universal Elite ABC Kit (Vector Laboratories, Burlingame, USA) according to the manufacturer's protocol. AEC Substrate-Chromogen (Dako, Glostrup, Denmark) was applied for peroxidase visualization according to the manufacturer's protocol. Nuclear counterstain was performed by using Mayer's Hematoxylin Solution (Sigma, St. Louis, USA). […]
For SYBR-based real-time PCR, cDNA synthesis was performed by using DNase I digestion (Invitrogen, Carlsbad, USA) and SuperScript II Reverse Transcriptase (Invitrogen, Carlsbad, USA) according to the manufacturer's protocol. […] The relative expression levels were calculated using the equation 2^−ddCt.

[4] = tested on: intrarenal ARNT and ALK3 transcription; conditions: GSE1563; regimens including FK506 compared to CsA; cited from earlier work

## C=CC[C@@H]1/C=C(\C)C[C@H](C)C[C@H](OC)[C@H]2O[C@@](O)(C(=O)C(=O)N3CCCC[C@H]3C(=O)O[C@H](/C(C)=C/[C@@H]3CC[C@@H](O)[C@H](OC)C3)[C@H](C)[C@@H](O)CC1=O)[C@H](C)C[C@@H]2OC [FK506, tacrolimus]
[1]; 0.02 mg/kg orally per day
  FK506 blood concentration: 245 ± 73 pg/mL
[1]; 0.075 mg/kg orally per day
  FK506 blood concentration: 452 ± 71 pg/mL
[1]; 0.2 mg/kg orally per day
  FK506 blood concentration: 535 ± 36 pg/mL
[2]
  formation of ARNT dimers in total kidney lysates: increased formation of ARNT dimers
[3]
  immunolabelling of ARNT, ALK3 and pSmad1/5/8: significantly increased
  intrarenal ARNT and ALK3 mRNA expression levels: Transcriptional induction
[4]
  intrarenal ARNT and ALK3 transcription: enhanced
